# Measured values reported in patent publication US10899732B2, “Substituted benzamides useful as sodium channel blockers” (GENENTECH, INC., priority 2015, dated 2021).
# Where a name gives a salt, the structure may show the parent alone.
# How the values were obtained:
# hNav1.7 = molecular target: T1, hNav1.7 (Homo sapiens, UniProt Q15858); experiment: Tritiated sulfonamide competitive binding to membranes from cells expressing hNav1.7 and the β1 subunit (LBA); conditions: competition with 100 pM [3H]compound, 18 h, room temperature; read-out: Nav1.7 (LBA)
# T1 construct: expressed in transfected cells
# T1 sequence (Q15858 1-1977 isoform Q15858-3): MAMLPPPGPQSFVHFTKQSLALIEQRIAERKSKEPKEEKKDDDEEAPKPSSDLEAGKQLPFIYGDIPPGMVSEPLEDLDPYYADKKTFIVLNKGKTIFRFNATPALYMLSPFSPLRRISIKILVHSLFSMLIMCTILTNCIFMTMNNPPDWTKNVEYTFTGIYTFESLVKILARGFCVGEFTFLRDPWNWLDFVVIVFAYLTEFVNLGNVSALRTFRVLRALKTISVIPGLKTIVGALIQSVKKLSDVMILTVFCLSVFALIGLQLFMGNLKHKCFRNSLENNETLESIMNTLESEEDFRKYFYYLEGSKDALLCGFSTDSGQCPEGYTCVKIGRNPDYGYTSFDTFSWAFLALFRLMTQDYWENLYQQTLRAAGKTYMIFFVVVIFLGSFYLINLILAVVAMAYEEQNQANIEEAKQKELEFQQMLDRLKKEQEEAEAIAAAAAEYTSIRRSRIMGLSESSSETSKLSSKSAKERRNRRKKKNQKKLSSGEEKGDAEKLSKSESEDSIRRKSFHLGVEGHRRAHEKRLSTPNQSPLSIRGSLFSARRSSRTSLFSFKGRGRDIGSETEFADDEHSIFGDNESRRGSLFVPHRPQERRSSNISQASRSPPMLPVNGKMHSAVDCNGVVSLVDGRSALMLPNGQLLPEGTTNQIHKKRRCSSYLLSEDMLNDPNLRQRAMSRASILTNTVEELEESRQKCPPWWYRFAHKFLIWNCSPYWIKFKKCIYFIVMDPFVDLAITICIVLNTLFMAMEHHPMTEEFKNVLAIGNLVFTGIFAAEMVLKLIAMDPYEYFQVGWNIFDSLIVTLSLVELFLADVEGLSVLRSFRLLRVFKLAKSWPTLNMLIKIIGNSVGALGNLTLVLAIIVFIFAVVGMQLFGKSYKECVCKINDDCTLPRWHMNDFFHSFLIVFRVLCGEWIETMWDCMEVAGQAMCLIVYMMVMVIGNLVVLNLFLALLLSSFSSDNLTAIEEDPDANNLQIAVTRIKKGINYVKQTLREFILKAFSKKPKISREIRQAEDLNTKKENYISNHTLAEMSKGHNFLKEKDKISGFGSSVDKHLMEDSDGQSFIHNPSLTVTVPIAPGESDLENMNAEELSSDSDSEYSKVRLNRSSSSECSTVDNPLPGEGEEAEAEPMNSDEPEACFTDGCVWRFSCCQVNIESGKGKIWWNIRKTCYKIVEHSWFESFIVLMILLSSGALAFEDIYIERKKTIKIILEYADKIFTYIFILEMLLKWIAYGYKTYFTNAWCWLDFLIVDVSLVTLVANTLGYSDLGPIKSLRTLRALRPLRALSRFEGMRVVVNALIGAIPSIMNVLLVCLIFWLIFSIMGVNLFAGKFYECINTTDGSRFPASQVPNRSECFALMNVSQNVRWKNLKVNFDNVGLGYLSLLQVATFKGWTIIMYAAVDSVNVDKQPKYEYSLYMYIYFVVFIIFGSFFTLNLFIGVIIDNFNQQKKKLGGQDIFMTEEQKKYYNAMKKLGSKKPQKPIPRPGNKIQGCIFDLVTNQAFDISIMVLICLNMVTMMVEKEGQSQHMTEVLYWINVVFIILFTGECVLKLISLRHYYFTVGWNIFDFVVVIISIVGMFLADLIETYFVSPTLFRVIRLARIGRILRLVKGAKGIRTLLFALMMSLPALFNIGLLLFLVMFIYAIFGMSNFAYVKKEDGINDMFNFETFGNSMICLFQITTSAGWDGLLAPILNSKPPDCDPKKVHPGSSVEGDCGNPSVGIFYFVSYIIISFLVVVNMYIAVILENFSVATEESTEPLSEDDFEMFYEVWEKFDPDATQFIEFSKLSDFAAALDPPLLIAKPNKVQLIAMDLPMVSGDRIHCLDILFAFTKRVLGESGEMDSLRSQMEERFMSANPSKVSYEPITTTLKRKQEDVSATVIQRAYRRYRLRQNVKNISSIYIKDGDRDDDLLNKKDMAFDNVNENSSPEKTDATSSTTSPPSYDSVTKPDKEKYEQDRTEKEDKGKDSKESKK
# T1 sequence (Q07699 19-218 partner): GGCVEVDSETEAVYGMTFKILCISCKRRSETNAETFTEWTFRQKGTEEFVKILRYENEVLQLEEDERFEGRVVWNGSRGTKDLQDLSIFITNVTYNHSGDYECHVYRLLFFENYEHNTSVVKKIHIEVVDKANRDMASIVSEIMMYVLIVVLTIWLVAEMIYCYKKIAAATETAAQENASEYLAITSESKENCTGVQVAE
# Method: Tritiated Sulfonamide Binding to Membranes Isolated from Cells that Heterologously Express hNav1.7 and the β1 Subunit
# Preparation of membranes containing recombinantly expressed sodium channels: Frozen recombinant cell pellets were thawed on ice and diluted to 4 times the cell pellet weight with ice cold 50 mM Tris HCl, pH 7.4 buffer. The cell suspensions were homogenized on ice using a motorized glass dounce homogenizer. Homogenates were further diluted 8.4 times with ice cold 50 mM Tris HCl, pH 7.4 buffer and then centrifuged at 200×g at 4° C. for 15 min. The supernatants were collected and centrifuged at 10000×g at 4° C. for 50 min. The pellets were then re-suspended in 100 mM NaCl, 20 mM Tris HCl, pH 7.4 buffer containing 1% v/v protease inhibitors (Calbiochem) and re-homogenized on ice. The homogenized membranes were then processed through a syringe equipped with a 26 gauge needle. Protein concentrations were determined by Bradford Assay and the membranes were stored at −80° C.
# Saturation experiments. A competitive NaV1.7 inhibitor having a methyl group was tritiated. Three tritiums were incorporated in place of methyl hydrogens to generate [^3H]compound. Binding of this radioligand was preformed in 5 mL borosilicate glass test tubes at room temperature. Binding was initiated by adding membranes to increasing concentrations of [^3H]compound in 100 mM NaCl, 20 mM Tris HCl, pH 7.4 buffer containing 0.01% w/v bovine serum albumin (BSA) for 18 h. Non-specific binding was determined in the presence of 1 μM unlabelled compound. After 18 h, the reactants were filtered through GF/C glass fiber filters presoaked in 0.5% w/v polyethylene imine. Filters were washed with 15 mL ice cold 100 mM NaCl, 20 mM Tris HCl, pH 7.4 buffer containing 0.25% BSA to separate bound from free ligand. [^3H]compound bound to filters was quantified by liquid scintillation counting.
# Binding reactions were performed in 96-well polypropylene plates at room temperature for 18 h. In 360 μL, membranes were incubated with 100 pM [^3H]compound and increasing concentrations of Test Compound. Non-specific binding was defined in the presence of 1 μM unlabelled compound. Reactions were transferred and filtered through 96-well glass fiber/C filter plates presoaked with 0.5% polyethylene imine. The filtered reactions were washed 5 times with 200 μL ice cold buffer containing 0.25% BSA. Bound radioactivity was determined by liquid scintillation counting.
# Data Analysis: For saturation experiments, non-specific binding was subtracted from total binding to provide specific binding and these values were recalculated in terms of pmol ligand bound per mg protein. Saturation curves were constructed and dissociation constants were calculated using the single site ligand binding model: Beq=(Bmax*X)/(X+Kd), where Beq is the amount of ligand bound at equilibrium, Bmax is the maximum receptor density, Kd is the dissociation constant for the ligand, and X is the free ligand concentration. For competition studies percent inhibition was determined and IC50 values were calculated using a 4 parameter logistic model (% inhibition=(A+((B−A)/(1+((x/C)^D)))) using XLfit, where A and B are the maximal and minimum inhibition respectively, C is the IC50 concentration and D is the (Hill) slope.
# NaV1.7 = molecular target: T2, NaV1.7 (Homo sapiens, UniProt Q15858); experiment: Patch voltage clamp electrophysiology assay (EP), NaV1.7 in HEK-293 cells; format: cell-based; conditions: HEK-293, β1 coexpressed, held at -60 mV (inactivated state)
# T2 construct: expression vector containing the full-length cDNA coding for the desired human sodium channel α-subunit; expressed in transfected cells; host or cells: HEK-293
# T2 sequence (Q15858 1-1977 isoform Q15858-3): as the sequence (Q15858 1-1977 isoform Q15858-3) above
# T2 sequence (Q07699 19-218 partner): as the sequence (Q07699 19-218 partner) above
# Source text: (§1) Electrophysiological Assay (EP) (In Vitro Assay)
# (§2) Patch voltage clamp electrophysiology allows for the direct measurement and quantification of block of voltage-gated sodium channels (NaV's), and allows the determination of the time- and voltage-dependence of block which has been interpreted as differential binding to the resting, open, and inactivated states of the sodium channel (Hille, B., Journal of General Physiology (1977), 69: 497-515).
# (§3) The following patch voltage clamp electrophysiology studies were performed on representative compounds of the invention using human embryonic kidney cells (HEK), permanently transfected with an expression vector containing the full-length cDNA coding for the desired human sodium channel α-subunit, grown in culture media containing 10% FBS, 1% PSG, and 0.5 mg/mL G418 at 37° C. with 5% CO2. […] NaV1.7 and NaV1.5 cDNAs (NM_002977 and AC137587; SCN5A, respectively) were stably expressed in HEK-293 cells. The β1 subunit was coexpressed in both the NaV1.7 and NaV1.5 cell lines.
# (§4) Sodium currents were measured using the patch clamp technique in the whole-cell configuration using either a PatchXpress automated voltage clamp or manually using an Axopatch 200B (Axon Instruments) or Model 2400 (A-M systems) amplifier. The manual voltage clamp protocol was as follows: Borosilicate glass micropipettes were fire-polished to a tip diameter yielding a resistance of 2-4 Mohms in the working solutions. The pipette was filled with a solution comprised of: 5 mM NaCl, 10 mM CsCl, 120 mM CsF, 0.1 mM CaCl2, 2 mM MgCl2, 10 mM HEPES, 10 mM EGTA; and adjusted to pH 7.2 with CsOH. The external solution had the following composition: 140 mM NaCl, 5 mM KCl, 2 mM CaCl2, 1 mM MgCl2, 10 mM HEPES; and adjusted to pH 7.4 with NaOH. In some studies, the external sodium was reduced by equimolar replacement with choline. Osmolarity in the CsF internal and NaCl external solutions was adjusted to 300 mOsm/kg and 310 mOsm/kg with glucose, respectively. All recordings were performed at ambient temperature in a bath chamber with a volume of 150 μL. Control sodium currents were measured in 0.5% DMSO. Controls and representative compounds of the invention were applied to the recording chamber through a 4-pinch or 8-pinch valve bath perfusion system manufactured by ALA Scientific Instruments.
# (§5) Currents were recorded at 40 kHz sampling frequency, filtered at […], and stored using a Digidata-1322A analogue/digital interface with the pClamp software (Axon Instruments). Series resistance compensation was applied (60-80%). […] All statistics in this study are given as mean±SD.
# (§6) The membrane potential was maintained at a voltage where inactivation of the channel is complete (which was −60 mV for both NaV1.7 and NaV1.5). The voltage is then stepped back to a very negative (Vhold=[…]) voltage for 20 ms and then a test pulse is applied to quantify the compound block. The 20 ms brief repolarization was long enough for compound-free channels to completely recover from fast inactivation, but the compound-bound channels recovered more slowly such that negligible recovery could occur during this interval. The percent decrease in sodium current following wash-on of compound was taken as the percent block of sodium channels.
# NaV1.5 = molecular target: T3, NaV1.5 (Homo sapiens, UniProt Q14524); experiment: Patch voltage clamp electrophysiology assay (EP), NaV1.5 in HEK-293 cells; format: cell-based; conditions: HEK-293, β1 coexpressed, held at -60 mV (inactivated state)
# T3 construct: expression vector containing the full-length cDNA coding for the desired human sodium channel α-subunit; expressed in transfected cells; host or cells: HEK-293
# T3 sequence (Q14524 whole entry): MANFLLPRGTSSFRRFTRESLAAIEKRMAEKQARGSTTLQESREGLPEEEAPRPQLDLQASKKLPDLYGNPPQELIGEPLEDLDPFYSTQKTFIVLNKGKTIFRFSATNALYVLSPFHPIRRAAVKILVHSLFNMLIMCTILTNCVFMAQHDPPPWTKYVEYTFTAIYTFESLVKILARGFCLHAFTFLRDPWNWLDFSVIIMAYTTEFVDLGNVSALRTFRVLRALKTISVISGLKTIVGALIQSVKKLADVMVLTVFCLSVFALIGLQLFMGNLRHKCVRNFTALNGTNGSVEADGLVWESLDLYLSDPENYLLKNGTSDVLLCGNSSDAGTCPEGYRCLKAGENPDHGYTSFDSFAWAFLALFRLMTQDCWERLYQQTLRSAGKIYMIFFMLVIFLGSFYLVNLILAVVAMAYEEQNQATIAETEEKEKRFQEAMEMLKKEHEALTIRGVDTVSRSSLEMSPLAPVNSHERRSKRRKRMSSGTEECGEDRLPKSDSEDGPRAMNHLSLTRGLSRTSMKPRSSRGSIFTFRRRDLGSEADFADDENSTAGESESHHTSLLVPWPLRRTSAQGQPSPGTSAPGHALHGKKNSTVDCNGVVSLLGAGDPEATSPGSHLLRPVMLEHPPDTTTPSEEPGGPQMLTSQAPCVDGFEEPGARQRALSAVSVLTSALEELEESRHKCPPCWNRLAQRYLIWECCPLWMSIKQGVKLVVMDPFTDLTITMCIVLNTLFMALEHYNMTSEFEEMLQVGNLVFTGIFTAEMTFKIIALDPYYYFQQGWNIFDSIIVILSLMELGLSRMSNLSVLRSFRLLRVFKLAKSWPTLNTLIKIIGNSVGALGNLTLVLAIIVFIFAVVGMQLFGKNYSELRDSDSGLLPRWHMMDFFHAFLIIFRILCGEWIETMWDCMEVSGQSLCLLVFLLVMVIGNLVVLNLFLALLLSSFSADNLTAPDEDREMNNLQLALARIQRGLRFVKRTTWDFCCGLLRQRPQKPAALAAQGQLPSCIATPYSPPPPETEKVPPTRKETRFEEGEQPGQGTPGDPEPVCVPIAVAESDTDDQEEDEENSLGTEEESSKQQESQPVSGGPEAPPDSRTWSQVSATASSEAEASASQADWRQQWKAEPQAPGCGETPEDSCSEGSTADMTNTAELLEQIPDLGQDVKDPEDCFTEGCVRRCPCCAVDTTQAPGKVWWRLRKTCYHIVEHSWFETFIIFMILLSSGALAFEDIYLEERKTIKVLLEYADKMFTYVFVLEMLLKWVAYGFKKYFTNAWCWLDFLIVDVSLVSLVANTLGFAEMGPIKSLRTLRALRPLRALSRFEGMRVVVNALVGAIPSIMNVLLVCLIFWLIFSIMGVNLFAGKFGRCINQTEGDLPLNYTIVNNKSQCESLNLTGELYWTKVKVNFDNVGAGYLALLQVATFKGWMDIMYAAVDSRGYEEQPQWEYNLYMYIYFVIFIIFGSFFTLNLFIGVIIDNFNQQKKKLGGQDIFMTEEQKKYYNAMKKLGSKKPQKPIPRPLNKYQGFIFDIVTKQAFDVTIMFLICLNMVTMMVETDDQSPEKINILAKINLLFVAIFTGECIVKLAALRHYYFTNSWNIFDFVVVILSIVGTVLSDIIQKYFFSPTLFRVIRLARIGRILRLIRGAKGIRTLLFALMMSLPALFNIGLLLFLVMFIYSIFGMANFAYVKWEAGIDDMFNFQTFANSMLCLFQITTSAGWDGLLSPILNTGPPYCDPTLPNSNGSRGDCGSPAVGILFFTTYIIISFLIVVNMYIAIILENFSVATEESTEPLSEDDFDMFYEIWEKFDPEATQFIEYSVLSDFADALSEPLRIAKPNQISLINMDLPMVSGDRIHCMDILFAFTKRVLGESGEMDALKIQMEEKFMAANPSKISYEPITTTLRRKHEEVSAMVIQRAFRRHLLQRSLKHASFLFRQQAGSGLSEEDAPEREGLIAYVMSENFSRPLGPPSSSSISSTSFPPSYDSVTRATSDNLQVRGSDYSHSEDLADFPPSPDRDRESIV
# Source text: as §1, §2, §3, §4, §5, §6
Structure (SMILES),IC50 (hNav1.7) [nM],IC50 (NaV1.7) [nM],IC50 (NaV1.5) [µM]
"Cc1nn(C2CCN(Cc3cc(Cl)ccc3C(F)(F)F)CC2)c2cc(F)c(C(=O)NS(=O)(=O)C3CC3)cc12 [Example 8, 1-(1-(5-chloro-2-(trifluoromethyl)benzyl)piperidin-4-yl)-N-(cyclopropylsulfonyl)-6-fluoro-3-methyl-1H-indazole-5-carboxamide]",5,26,0.61
"Cc1nn(C2CCN([C@H](C)c3cc(Cl)cc(Cl)c3)CC2)c2cc(F)c(C(=O)NS(=O)(=O)C3CC3)cc12 [Example 9, (R)-N-(cyclopropylsulfonyl)-1-(1-(1-(3,5-dichlorophenyl)ethyl)piperidin-4-yl)-6-fluoro-3-methyl-1H-indazole-5-carboxamide]",6,46,8.3
"Cc1nn(C2CCN([C@@H](C)c3cc(Cl)cc(Cl)c3)CC2)c2cc(F)c(C(=O)NS(=O)(=O)C3CC3)cc12 [Example 10, (S)-N-(cyclopropylsulfonyl)-1-(1-(1-(3,5-dichlorophenyl)ethyl)piperidin-4-yl)-6-fluoro-3-methyl-1H-indazole-5-carboxamide]",10,33,14
"Cc1nn([C@@H]2CCN(Cc3cc(Cl)cc(OC(F)(F)F)c3)C2)c2cc(F)c(C(=O)NS(=O)(=O)C3CC3)cc12 [Example 11, (R)-1-(1-(3-chloro-5-(trifluoromethoxy)benzyl)pyrrolidin-3-yl)-N-(cyclopropylsulfonyl)-6-fluoro-3-methyl-1H-indazole-5-carboxamide 2,2,2-trifluoroacetate]",13,23,0.8
"Cc1nn([C@@H]2CCN(Cc3cc(Cl)ccc3C(F)(F)F)C2)c2cc(F)c(C(=O)NS(=O)(=O)C3CC3)cc12 [Example 12, (R)-1-(1-(5-chloro-2-(trifluoromethyl)benzyl)pyrrolidin-3-yl)-N-(cyclopropylsulfonyl)-6-fluoro-3-methyl-1H-indazole-5-carboxamide 2,2,2-trifluoroacetate]",5,32,0.51
"Cc1nn(C2CCN(c3ccc(Cl)c(C(F)(F)F)n3)CC2)c2cc(F)c(C(=O)NS(=O)(=O)C3CC3)cc12 [Example 13, 1-(1-(5-chloro-6-(trifluoromethyl)pyridin-2-yl)piperidin-4-yl)-N-(cyclopropylsulfonyl)-6-fluoro-3-methyl-1H-indazole-5-carboxamide 2,2,2-trifluoroacetate]",15,250,2.4
"Cc1nn(C2CN(Cc3cc(Cl)cc(OC(F)(F)F)c3)C2)c2cc(F)c(C(=O)NS(C)(=O)=O)cc12 [Example 14, 1-(1-(3-chloro-5-(trifluoromethoxy)benzyl)azetidin-3-yl)-6-fluoro-3-methyl-N-(methylsulfonyl)-1H-indazole-5-carboxamide]",32,400,13
"Cc1nn(C2CN(Cc3cc(Cl)cc(OC(F)(F)F)c3)C2)c2cc(F)c(C(=O)NS(=O)(=O)C3CC3)cc12 [Example 15, 1-(1-(3-chloro-5-(trifluoromethoxy)benzyl)azetidin-3-yl)-N-(cyclopropylsulfonyl)-6-fluoro-3-methyl-1H-indazole-5-carboxamide]",11,88,3.2
"Cc1nn([C@@H]2CCN([C@H](C)c3cc(Cl)cc(Cl)c3)C2)c2cc(F)c(C(=O)NS(C)(=O)=O)cc12 [Example 16, 1-((R)-1-((R)-1-(3,5-dichlorophenyl)ethyl)pyrrolidin-3-yl)-6-fluoro-3-methyl-N-(methylsulfonyl)-1H-indazole-5-carboxamide, trifluoroacetic acid salt]",17,100,13
"Cc1nn([C@@H]2CCN([C@H](C)c3cc(Cl)cc(Cl)c3)C2)c2cc(F)c(C(=O)NS(=O)(=O)C3CC3)cc12 [Example 17, N-(cyclopropylsulfonyl)-1-((R)-1-((R)-1-(3,5-dichlorophenyl)ethyl)pyrrolidin-3-yl)-6-fluoro-3-methyl-1H-indazole-5-carboxamide 2,2,2-trifluoroacetate]",6,45,0.88
"Cc1nn([C@@H]2CCN([C@@H](C)c3cc(Cl)cc(Cl)c3)C2)c2cc(F)c(C(=O)NS(C)(=O)=O)cc12 [Example 18, 1-((R)-1-((S)-1-(3,5-dichlorophenyl)ethyl)pyrrolidin-3-yl)-6-fluoro-3-methyl-N-(methylsulfonyl)-1H-indazole-5-carboxamide, trifluoroacetic acid salt]",40,150,17
"Cc1nn([C@@H]2CCN([C@@H](C)c3cc(Cl)cc(Cl)c3)C2)c2cc(F)c(C(=O)NS(=O)(=O)C3CC3)cc12 [Example 19, N-(cyclopropylsulfonyl)-1-((R)-1-((S)-1-(3,5-dichlorophenyl)ethyl)pyrrolidin-3-yl)-6-fluoro-3-methyl-1H-indazole-5-carboxamide, trifluoroacetic acid salt]",12,41,6.3
"Cc1nn([C@@H]2CCN(Cc3ccc(Cl)cc3C(F)(F)F)C2)c2cc(F)c(C(=O)NS(=O)(=O)C3CC3)cc12 [Example 20, (R)-1-(1-(4-chloro-2-(trifluoromethyl)benzyl)pyrrolidin-3-yl)-N-(cyclopropylsulfonyl)-6-fluoro-3-methyl-1H-indazole-5-carboxamide, trifluoroacetic acid salt]",10,62,0.58
